From patent US20250115598A1 (Anaxis Pharma Pty Ltd, priority 2021, published 2025)
Where two headings read alike, the source gives them in different places.

Legend:
human RIPK1 = human RIPK1 (Homo sapiens (Human), UniProt Q13546); assay: KINOMEscan binding assay, human RIPK1; conditions: Table 21
In short: (§1)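 Competition binding format with qPCR detection. Kinases, either phage-fused from E. coli lysates or HEK-293-derived with a DNA tag, bound ligand-coated beads in the presence of compound (11 points, 3-fold steps, 1% DMSO, top usually 30,000 nM). Kd from nonlinear Hill fitting with slope −1.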

human RIPK3 = human RIPK3 (Homo sapiens (Human), UniProt Q9Y572); assay: KINOMEscan binding assay, human RIPK3; conditions: Table 21
In short: as §1

U937 cells = assay: Counter screen: cell viability without the TSQ cocktail (off-target effect); design: species or system human; conditions: Homo sapiens
Protocol: (§2) • Cell Line ID: U937 human histiocytic leukemia cell line. • Cell Concentration (cells/well): Final cell density is 20000 cells per well. • Cell growth medium: HT-RPMI medium+7.4% Fetal Bovine Serum (FBS). Cells are cultured in Corning 150 cm^2 tissue culture flasks with vented caps at 37° C./5% CO2. • Incubation: Plates were incubated at 37° C./5% CO2 in a humidified incubator for 48 hours following addition of compounds and death stimuli (TSQ cocktail). • Compound concentration: 36 μM starting concentration, 1:3 dilution, 10 point • DMSO final concentration (% v/v): 0.3%. Compounds in TSQ Cocktail (T: TNF; S: Smac Mimetic; Q: Q-VD-OPh) and their Final Concentrations: • hTNF-Fc (100 ng/ml)—produced by standard procedures as shown in Bossen et al., J. Biol. Chem., 2006, 281(20), 13964-13971. • Compound A (500 nM)—Smac mimetic, Tetralogic and SYNthesis med chem • Q-VD-OPh (10 μM)—MP Biomedicals
(§3) The cellular assay was carried out according to the following steps: • 1. Each well was prepared by sequential addition of: • a. DMSO (control; columns 1-2 and 23-24) or compound in DMSO—addition was performed using acoustic transfer of nL volumes of stock compound to give final test concentrations of 36, 12, 4, 1.3, 0.44, 0.148, 0.049, 0.016, 0.005 and 0.002 μM. All wells were backfilled with DMSO to a final total volume in the well of 100 nL. • b. Following compound/DMSO addition in step (a), 40 μL of cell suspension (5×10^5 cells/mL) was added to provide a final cell concentration of 20,000 cells per well, and • c. Following cell addition in step (b), 10 μL of 5×TSQ cocktail (except to positive controls; columns 1 and 23) was added to each well. • 2. After 48 hours, plate was removed from the 37° C. incubator and equilibrated to room temperature for 45 minutes. • 3.15 μL of room temperature CellTitre-Glo2™ (Promega™) was added to each well. • 4. Shook plates for 2 minutes (˜600 rpm) and incubated at room temperature for 15 minutes to allow signal to stabilise. • 5. Read luminescence readout on a plate reader.
(§4) • Assay involving the TSQ cocktail (T: TNF; S: Smac mimetic; Q: Q-VD-OPh): TSQ treatment ensures that cells specifically undergo necroptotic cell death. TNF activates the TNF receptor, Smac mimetic directs the signal away from proinflammatory signaling and toward the RIPK1/RIPK3-mediated cell death pathways, and Q-VD-OPh ensures that the apoptotic response is blocked leaving only the programmed necrosis response. The compounds' activity (solution in DMSO) tested in this TSQ-induced assay was evaluated by determining the number of viable cells in culture by measuring the amount of ATP present as measured by CelltiterGlo. • Counter screen: In parallel, all compounds were tested for their ability to affect cell viability. The same U937 cells were treated with compound in DMSO without the TSQ cocktail. This counter screen enabled evaluation of off-target effects. In this case, cell viability was measured by CelltiterGlo.

[1] = system: Immortalised Mouse Dermal Fibroblasts (MDFs); assay: Cellular assay: inhibition of TSI induced necroptosis, CellTitre-Glo viability; conditions: Mus musculus, Fibroblast; MDF, 3 hours TSI cocktail, Table 24; read-out: Inhibition of TSI-induced necroptosis (IC50 cell-based assay) in MDF
In short: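 Necroptosis induced for 3 h with TSI: rhTNF 100 ng/ml, Smac mimetic 500 nM, caspase inhibitor IDN-6556 10 μM. Mouse dermal fibroblasts had received compound (36 μM top, ten three-fold steps) 30 min beforehand. ATP-based viability scaled between untreated and TSI-only wells; IC50 taken as 4-parameter curve inflection.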

human MLKL (full length) = human MLKL (full length) (Homo sapiens (Human), UniProt Q8NB16); assay: KINOMEscan binding assay, human MLKL (full length); conditions: hMLKL, Table 25; read-out: MLKL (KD)
In short: as §1

[2] = system: U937 human histiocytic leukemia cell line; assay: Cellular assay: inhibition of TSQ induced necroptosis, CellTitre-Glo viability; conditions: Homo sapiens, U-937; U937 cells, 48 hours, TSQ cocktail, Table 26; read-out: Inhibition of TSQ-induced necroptosis (IC50 cell-based assay)
Protocol: Cellular Assay: Screening Compounds for Inhibition of TSQ Induced Necroptosis, 384 Well Plate Format.
as §2, §3
Percent viability was calculated for each compound according to equation (2):
as §4

[3] = U-937, Table 26, read-out: Off-target effect (IC50 cell-based assay)

human MLKL (full length), sequence (Q8NB16 whole entry): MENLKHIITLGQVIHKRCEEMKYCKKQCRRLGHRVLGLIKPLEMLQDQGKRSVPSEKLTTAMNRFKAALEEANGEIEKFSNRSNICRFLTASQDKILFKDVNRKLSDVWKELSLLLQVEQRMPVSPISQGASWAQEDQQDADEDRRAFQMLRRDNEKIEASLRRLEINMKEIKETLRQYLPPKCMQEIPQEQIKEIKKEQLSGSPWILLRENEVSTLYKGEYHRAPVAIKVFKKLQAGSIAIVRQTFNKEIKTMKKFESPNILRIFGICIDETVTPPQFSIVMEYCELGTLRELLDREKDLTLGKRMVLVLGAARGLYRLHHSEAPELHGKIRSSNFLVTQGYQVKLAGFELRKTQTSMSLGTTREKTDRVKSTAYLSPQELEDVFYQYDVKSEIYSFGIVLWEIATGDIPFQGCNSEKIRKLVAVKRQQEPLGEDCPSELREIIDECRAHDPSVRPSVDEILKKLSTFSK
human RIPK3, sequence (Q9Y572 whole entry): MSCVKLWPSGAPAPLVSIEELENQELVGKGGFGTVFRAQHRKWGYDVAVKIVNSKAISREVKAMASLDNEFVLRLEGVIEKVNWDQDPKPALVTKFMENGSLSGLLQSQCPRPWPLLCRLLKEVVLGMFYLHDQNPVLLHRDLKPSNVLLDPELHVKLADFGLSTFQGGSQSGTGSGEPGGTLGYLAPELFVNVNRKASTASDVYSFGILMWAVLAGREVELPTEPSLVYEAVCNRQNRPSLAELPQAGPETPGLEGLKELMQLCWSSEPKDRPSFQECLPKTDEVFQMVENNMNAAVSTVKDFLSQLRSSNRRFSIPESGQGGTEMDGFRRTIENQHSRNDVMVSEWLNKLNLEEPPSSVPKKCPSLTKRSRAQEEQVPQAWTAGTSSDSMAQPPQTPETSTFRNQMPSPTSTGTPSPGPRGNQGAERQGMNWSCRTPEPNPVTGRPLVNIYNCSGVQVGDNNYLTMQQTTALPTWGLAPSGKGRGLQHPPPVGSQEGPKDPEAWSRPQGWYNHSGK
human RIPK1, sequence (Q13546 whole entry, the tested form may be a part): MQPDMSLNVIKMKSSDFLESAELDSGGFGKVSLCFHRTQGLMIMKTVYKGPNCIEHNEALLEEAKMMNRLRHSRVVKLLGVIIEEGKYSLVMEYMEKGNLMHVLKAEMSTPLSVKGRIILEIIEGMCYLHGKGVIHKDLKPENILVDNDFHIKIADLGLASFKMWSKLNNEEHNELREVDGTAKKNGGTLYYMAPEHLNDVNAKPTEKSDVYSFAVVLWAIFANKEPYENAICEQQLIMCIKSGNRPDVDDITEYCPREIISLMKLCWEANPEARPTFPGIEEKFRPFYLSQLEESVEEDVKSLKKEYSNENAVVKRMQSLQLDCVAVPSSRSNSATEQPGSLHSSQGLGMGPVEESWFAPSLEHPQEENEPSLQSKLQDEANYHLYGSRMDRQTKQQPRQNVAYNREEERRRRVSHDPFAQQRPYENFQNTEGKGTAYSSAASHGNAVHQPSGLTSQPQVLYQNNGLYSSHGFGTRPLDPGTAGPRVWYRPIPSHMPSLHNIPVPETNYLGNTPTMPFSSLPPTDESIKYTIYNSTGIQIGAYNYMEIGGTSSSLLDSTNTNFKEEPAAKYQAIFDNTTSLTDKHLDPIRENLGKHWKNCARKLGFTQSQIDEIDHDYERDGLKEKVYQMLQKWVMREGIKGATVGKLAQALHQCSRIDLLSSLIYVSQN

SMILES	Kd (human RIPK1) [µM]	Kd (human RIPK3) [µM]	IC50 (U937 cells; U-937, Table 23, read-out: Off-target effect (IC50 cell-based assay)) [µM]	IC50 [1] [µM]	Kd (human MLKL (full length)) [µM]	IC50 [2] [µM]	IC50 (U937 cells; [3]) [µM]
C[C@H](Oc1cc(-c2nn(C)c3c(-c4cnn(C5CCN(C)CC5)c4)cnc(N)c23)ccc1NS(=O)(=O)C(F)F)c1ccc(F)cc1 [Compound 46, (S)-N-(4-(4-amino-1-methyl-7-(1-(1-methylpiperidin-4-yl)-1H-pyrazol-4-yl)-1H-pyrazolo[4,3-c]pyridin-3-yl)-2-(1-(4-fluorophenyl)ethoxy)phenyl)-1,1-difluoromethanesulfonamide]	> 10	> 10	> 10	< 1	–	–	–
CCS(=O)(=O)Nc1ccc(-c2n[nH]c3c(-c4cnn(CCC(=O)N[C@H](C(=O)N5C[C@H](O)C[C@H]5C(=O)NCc5ccc(-c6scnc6C)cc5)C(C)(C)C)c4)cnc(N)c23)cc1OCc1ccc(F)cc1 [Compound 1001, (2S,4R)-1-[(2S)-2-{3-[4-(4-amino-3-{4-ethanesulfonamido-3-[(4-fluorophenyl)methoxy]phenyl}-1H-pyrazolo[4,3-c]pyridin-7-yl)-1H-pyrazol-1-yl]propanamido}-3,3-dimethylbutanoyl]-4-hydroxy-N-{[4-(4-methyl-1,3-thiazol-5-yl)phenyl]methyl}pyrrolidine-2-carboxamide]	–	–	–	–	< 0.01	> 10	> 10
CCS(=O)(=O)Nc1ccc(-c2n[nH]c3c(-c4cnn(CCCCC(=O)N[C@H](C(=O)N5C[C@H](O)C[C@H]5C(=O)NCc5ccc(-c6scnc6C)cc5)C(C)(C)C)c4)cnc(N)c23)cc1OCc1ccc(F)cc1 [Compound 1002, (2S,4R)-1-[(2S)-2-{5-[4-(4-amino-3-{4-ethanesulfonamido-3-[(4-fluorophenyl)methoxy]phenyl}-1H-pyrazolo[4,3-c]pyridin-7-yl)-1H-pyrazol-1-yl]pentanamido}-3,3-dimethylbutanoyl]-4-hydroxy-N-{[4-(4-methyl-1,3-thiazol-5-yl)phenyl]methyl}pyrrolidine-2-carboxamide]	–	–	–	–	< 0.01	> 10	> 10
CCS(=O)(=O)Nc1ccc(-c2n[nH]c3c(-c4cnn(CCOCC(=O)N[C@H](C(=O)N5C[C@H](O)C[C@H]5C(=O)NCc5ccc(-c6scnc6C)cc5)C(C)(C)C)c4)cnc(N)c23)cc1OCc1ccc(F)cc1 [Compound 1004, (2S,4R)-1-[(2S)-2-(2-{2-[4-(4-amino-3-{4-ethanesulfonamido-3-[(4-fluorophenyl)methoxy]phenyl}-1H-pyrazolo[4,3-c]pyridin-7-yl)-1H-pyrazol-1-yl]ethoxy}acetamido)-3,3-dimethylbutanoyl]-4-hydroxy-N-{[4-(4-methyl-1,3-thiazol-5-yl)phenyl]methyl}pyrrolidine-2-carboxamide]	–	–	–	–	< 0.01	> 10	> 10
Cc1ncsc1-c1ccc(CNC(=O)[C@@H]2C[C@H](O)CN2C(=O)[C@@H](NC(=O)COCCOCCn2cc(-c3cnc(N)c4c(-c5ccc(NS(=O)(=O)C(F)F)c(O[C@@H](C)c6ccc(F)cc6)c5)nn(C)c34)cn2)C(C)(C)C)cc1 [Compound 1007, (2S,4S)-1-[(2S)-2-(2-{2-[2-(4-{4-amino-3-[4-(difluoromethanesulfonamido)-3-[(1S)-1-(4-fluorophenyl)ethoxy]phenyl]-1-methyl-1H-pyrazolo[4,3-c]pyridin-7-yl}-1H-pyrazol-1-yl)ethoxy]ethoxy}acetamido)-3,3-dimethylbutanoyl]-4-hydroxy-N-{[4-(4-methyl-1,3-thiazol-5-yl)phenyl]methyl}pyrrolidine-2-carboxamide]	–	–	–	–	0.01 to 1	< 1	> 10
Cc1ncsc1-c1ccc(CNC(=O)[C@@H]2C[C@@H](O)CN2C(=O)[C@@H](NC(=O)COCCN2CCC(n3cc(-c4cnc(N)c5c(-c6ccc(NS(=O)(=O)C(F)F)c(O[C@@H](C)c7ccc(F)cc7)c6)nn(C)c45)cn3)C2)C(C)(C)C)cc1 (stereo partly drawn) [Compound 1013, (2S,4R)-1-[(2S)-2-(2-{2-[3-(4-{4-amino-3-[4-(difluoromethanesulfonamido)-3-[(1S)-1-(4-fluorophenyl)ethoxy]phenyl]-1-methyl-1H-pyrazolo[4,3-c]pyridin-7-yl}-1H-pyrazol-1-yl)pyrrolidin-1-yl]ethoxy}acetamido)-3,3-dimethylbutanoyl]-4-hydroxy-N-{[4-(4-methyl-1,3-thiazol-5-yl)phenyl]methyl}pyrrolidine-2-carboxamide]	–	–	–	–	< 0.01	1 to 10	> 10
CCS(=O)(=O)Nc1ccc(-c2nn(C)c3c(-c4cnn(CCOCCOCC(=O)N[C@H](C(=O)N5C[C@H](O)C[C@H]5C(=O)NCc5ccc(-c6scnc6C)cc5)C(C)(C)C)c4)cnc(N)c23)cc1 [Compound 1019, (2S,4R)-1-[(2S)-2-{2-[2-(2-{4-[4-amino-3-(4-ethanesulfonamidophenyl)-1-methyl-1H-pyrazolo[4,3-c]pyridin-7-yl]-1H-pyrazol-1-yl}ethoxy)ethoxy]acetamido}-3,3-dimethylbutanoyl]-4-hydroxy-N-{[4-(4-methyl-1,3-thiazol-5-yl)phenyl]methyl}pyrrolidine-2-carboxamide]	–	–	–	–	0.01 to 1	1 to 10	> 10
CCS(=O)(=O)Nc1ccc(-c2nn(C)c3c(-c4cnn(CCCCCCC(=O)N[C@H](C(=O)N5C[C@H](O)C[C@H]5C(=O)NCc5ccc(-c6scnc6C)cc5)C(C)(C)C)c4)cnc(N)c23)cc1 [Compound 1020, (2S,4R)-1-[(2S)-2-(7-{4-[4-amino-3-(4-ethanesulfonamidophenyl)-1-methyl-1H-pyrazolo[4,3-c]pyridin-7-yl]-1H-pyrazol-1-yl}heptanamido)-3,3-dimethylbutanoyl]-4-hydroxy-N-{[4-(4-methyl-1,3-thiazol-5-yl)phenyl]methyl}pyrrolidine-2-carboxamide]	–	–	–	–	0.01 to 1	< 1	> 10
Cc1ncsc1-c1ccc(CNC(=O)[C@@H]2C[C@@H](O)CN2C(=O)[C@@H](NC(=O)COCCOCCn2cc(-c3cnc(N)c4c(-c5ccc(NS(=O)(=O)C(F)F)cc5)nn(C)c34)cn2)C(C)(C)C)cc1 [Compound 1021]	–	–	–	–	< 0.01	1 to 10	> 10
CCS(=O)(=O)Nc1ccc(-c2nn(C)c3c(-c4cnn(CCOCCOCC(=O)N[C@H](C(=O)N5C[C@H](O)C[C@H]5C(=O)NCc5ccc(-c6scnc6C)cc5)C(C)(C)C)c4)cnc(C)c23)cc1F [Compound 1029, (2S,4R)-1-[(2S)-2-{2-[2-(2-{4-[3-(4-ethanesulfonamido-3-fluorophenyl)-1,4-dimethyl-1H-pyrazolo[4,3-c]pyridin-7-yl]-1H-pyrazol-1-yl}ethoxy)ethoxy]acetamido}-3,3-dimethylbutanoyl]-4-hydroxy-N-{[4-(4-methyl-1,3-thiazol-5-yl)phenyl]methyl}pyrrolidine-2-carboxamide]	–	–	–	–	–	< 1	> 10
